Columns and labels:
[1] = target: Casein kinase I isoform gamma-1 (Homo sapiens) (UniProt Q9HCP0); assay: Selectivity interaction (KinomeScan (DiscoverX)) EUB0000655a CSNK1G1; conditions: at 10 µM
[2] = target: T1, SNF-related serine/threonine-protein kinase (Homo sapiens) (UniProt Q9NRH2); assay: Selectivity interaction (KinomeScan (DiscoverX)) EUB0000655a SNRK; conditions: at 10 µM
T1 sequence (whole entry): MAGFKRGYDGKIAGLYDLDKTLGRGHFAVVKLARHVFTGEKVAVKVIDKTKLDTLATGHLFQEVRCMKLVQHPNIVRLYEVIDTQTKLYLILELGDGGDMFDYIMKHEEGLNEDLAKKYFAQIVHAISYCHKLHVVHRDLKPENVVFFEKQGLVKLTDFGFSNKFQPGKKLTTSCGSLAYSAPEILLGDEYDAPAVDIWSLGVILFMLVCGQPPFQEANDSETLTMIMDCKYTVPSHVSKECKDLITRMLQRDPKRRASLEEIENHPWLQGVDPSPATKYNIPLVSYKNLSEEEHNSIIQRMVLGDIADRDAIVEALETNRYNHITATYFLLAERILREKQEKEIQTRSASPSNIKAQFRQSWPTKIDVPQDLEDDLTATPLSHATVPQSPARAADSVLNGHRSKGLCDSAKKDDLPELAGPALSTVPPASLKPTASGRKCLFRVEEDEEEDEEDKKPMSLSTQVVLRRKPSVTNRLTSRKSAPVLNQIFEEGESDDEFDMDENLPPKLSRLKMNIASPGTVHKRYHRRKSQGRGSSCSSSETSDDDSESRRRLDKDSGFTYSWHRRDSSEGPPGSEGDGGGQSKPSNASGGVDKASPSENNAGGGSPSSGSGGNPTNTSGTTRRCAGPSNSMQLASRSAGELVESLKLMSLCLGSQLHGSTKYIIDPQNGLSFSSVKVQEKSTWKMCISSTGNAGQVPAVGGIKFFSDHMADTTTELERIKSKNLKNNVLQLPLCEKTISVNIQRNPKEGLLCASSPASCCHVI

[3] = target: BMP-2-inducible protein kinase (Homo sapiens) (UniProt Q9NSY1); assay: Selectivity interaction (KinomeScan (DiscoverX)) EUB0000655a BMP2K; conditions: at 10 µM
BMP-2-inducible protein kinase (Homo sapiens), sequence (Q9NSY1 whole entry, looked up): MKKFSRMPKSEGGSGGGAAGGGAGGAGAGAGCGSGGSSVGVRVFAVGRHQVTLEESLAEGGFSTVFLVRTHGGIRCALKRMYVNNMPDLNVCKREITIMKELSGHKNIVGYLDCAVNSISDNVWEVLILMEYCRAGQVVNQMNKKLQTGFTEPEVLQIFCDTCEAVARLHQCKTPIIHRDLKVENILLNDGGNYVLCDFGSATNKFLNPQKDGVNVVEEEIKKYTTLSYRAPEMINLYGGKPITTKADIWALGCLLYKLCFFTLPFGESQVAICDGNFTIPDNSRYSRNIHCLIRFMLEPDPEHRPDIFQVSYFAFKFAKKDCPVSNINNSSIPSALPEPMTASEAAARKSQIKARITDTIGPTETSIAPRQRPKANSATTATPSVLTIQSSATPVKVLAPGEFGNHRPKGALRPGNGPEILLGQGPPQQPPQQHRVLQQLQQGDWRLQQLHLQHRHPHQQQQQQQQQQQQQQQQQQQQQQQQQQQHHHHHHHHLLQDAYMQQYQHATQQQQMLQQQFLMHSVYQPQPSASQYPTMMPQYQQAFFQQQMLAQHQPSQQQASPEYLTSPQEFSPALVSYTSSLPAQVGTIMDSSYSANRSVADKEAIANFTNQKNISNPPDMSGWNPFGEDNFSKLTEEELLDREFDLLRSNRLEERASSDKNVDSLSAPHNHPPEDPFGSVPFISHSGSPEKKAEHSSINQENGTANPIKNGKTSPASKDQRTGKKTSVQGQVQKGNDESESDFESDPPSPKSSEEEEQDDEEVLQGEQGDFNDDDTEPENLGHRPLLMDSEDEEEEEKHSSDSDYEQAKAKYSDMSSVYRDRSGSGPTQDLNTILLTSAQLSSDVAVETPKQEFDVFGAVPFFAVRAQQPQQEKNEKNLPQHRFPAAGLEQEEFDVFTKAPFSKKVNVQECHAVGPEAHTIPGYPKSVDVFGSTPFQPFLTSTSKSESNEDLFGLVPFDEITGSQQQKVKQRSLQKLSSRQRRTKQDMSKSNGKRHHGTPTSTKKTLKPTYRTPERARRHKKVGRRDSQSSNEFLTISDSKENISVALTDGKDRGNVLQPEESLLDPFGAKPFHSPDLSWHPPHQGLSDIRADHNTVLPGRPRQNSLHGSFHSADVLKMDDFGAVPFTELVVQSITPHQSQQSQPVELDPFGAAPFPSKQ

[4] = target: T2, Dual specificity mitogen-activated protein kinase kinase 6 (Homo sapiens) (UniProt P52564); assay: (§1) Selectivity interaction (LanthaScreen Eu Kinase Binding Assay) EUB0001632a MAP2K6; conditions: at 10 µM
T2 sequence (whole entry): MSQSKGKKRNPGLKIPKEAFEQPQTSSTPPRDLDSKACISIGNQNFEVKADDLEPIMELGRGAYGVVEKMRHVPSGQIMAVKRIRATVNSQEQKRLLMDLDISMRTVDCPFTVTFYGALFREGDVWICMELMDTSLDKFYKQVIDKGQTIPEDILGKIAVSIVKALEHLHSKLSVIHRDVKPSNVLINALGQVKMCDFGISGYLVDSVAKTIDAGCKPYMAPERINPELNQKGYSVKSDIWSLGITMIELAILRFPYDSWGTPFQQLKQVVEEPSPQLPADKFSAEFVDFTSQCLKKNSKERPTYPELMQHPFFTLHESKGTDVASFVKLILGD

[5] = test system: Dual specificity mitogen-activated protein kinase kinase 6 (Homo sapiens), P52564 [S207E,T211E]; assay: as §1; conditions: at 10 µM
Dual specificity mitogen-activated protein kinase kinase 6 (Homo sapiens), P52564 [S207E,T211E], sequence (P52564 whole entry S207E/T211E): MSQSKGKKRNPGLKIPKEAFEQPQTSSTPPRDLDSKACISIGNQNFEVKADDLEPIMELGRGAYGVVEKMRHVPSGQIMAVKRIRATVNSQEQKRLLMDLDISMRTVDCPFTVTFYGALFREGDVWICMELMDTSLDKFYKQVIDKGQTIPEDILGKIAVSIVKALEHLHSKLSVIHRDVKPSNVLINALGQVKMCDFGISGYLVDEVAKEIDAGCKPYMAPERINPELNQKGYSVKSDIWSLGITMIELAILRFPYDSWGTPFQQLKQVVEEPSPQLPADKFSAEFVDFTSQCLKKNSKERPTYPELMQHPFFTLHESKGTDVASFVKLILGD

[6] = target: Tyrosine-protein kinase Fyn (Homo sapiens) (UniProt P06241); assay: Selectivity interaction (Kinase panel (Z-LYTE Assay)) EUB0001632a FYN; conditions: at 10 µM
Tyrosine-protein kinase Fyn (Homo sapiens), sequence (P06241 2-537 limits assumed): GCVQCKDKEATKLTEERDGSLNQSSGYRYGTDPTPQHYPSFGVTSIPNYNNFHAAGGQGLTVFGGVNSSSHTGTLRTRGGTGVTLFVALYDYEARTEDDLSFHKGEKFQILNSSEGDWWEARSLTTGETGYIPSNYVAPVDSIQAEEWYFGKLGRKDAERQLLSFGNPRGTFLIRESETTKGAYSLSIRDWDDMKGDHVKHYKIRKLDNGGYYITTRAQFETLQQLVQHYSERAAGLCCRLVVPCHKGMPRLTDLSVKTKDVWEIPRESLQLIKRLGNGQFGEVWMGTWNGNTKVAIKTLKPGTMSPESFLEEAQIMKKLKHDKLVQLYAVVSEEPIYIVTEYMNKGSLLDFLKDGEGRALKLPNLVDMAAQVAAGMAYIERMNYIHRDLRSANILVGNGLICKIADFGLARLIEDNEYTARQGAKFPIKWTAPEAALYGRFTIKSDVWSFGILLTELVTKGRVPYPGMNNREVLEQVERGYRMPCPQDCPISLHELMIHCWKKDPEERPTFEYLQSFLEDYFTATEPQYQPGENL

[7] = target: Mitogen-activated protein kinase kinase kinase 21 (Homo sapiens) (UniProt Q5TCX8); assay: Selectivity interaction (ActivX KiNativ screen (kinase selectivity in THP-1 cell lysates)) EUB0000639a MAP3K21; type: subcellular; conditions: lysate
Mitogen-activated protein kinase kinase kinase 21 (Homo sapiens), sequence (Q5TCX8 whole entry): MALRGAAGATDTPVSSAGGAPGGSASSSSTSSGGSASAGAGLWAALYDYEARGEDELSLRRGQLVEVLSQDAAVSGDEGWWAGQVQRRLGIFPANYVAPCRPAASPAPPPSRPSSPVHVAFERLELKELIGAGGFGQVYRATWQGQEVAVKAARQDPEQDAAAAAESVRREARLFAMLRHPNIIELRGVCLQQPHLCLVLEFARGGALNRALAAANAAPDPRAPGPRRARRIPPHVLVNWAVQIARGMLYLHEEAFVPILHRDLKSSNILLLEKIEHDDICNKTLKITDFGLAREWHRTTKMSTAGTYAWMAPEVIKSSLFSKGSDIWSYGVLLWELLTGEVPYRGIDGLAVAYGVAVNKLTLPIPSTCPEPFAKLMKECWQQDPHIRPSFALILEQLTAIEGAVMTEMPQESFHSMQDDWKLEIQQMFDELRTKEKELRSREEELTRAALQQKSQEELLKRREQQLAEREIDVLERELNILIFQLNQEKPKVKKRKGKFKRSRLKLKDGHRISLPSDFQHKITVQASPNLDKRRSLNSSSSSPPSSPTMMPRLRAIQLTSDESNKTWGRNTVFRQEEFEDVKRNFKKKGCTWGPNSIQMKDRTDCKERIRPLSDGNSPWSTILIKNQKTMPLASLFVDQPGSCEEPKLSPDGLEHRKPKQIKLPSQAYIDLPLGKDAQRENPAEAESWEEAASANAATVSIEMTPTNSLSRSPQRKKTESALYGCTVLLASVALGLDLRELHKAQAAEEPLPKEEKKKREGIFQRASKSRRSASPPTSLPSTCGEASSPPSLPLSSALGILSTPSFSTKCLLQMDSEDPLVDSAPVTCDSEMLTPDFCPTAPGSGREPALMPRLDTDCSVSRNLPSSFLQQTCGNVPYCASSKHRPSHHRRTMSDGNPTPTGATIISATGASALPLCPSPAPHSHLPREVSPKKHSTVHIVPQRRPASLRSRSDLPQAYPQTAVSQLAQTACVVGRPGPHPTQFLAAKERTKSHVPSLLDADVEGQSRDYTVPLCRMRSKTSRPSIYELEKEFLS

[8] = target: T3, Aurora kinase A (Homo sapiens) (UniProt O14965); assay: Selectivity interaction (ActivX KiNativ screen (kinase selectivity in THP-1 cell lysates)) EUB0000639a STK6; type: subcellular; conditions: lysate, at 0.2 µM
T3 sequence (whole entry): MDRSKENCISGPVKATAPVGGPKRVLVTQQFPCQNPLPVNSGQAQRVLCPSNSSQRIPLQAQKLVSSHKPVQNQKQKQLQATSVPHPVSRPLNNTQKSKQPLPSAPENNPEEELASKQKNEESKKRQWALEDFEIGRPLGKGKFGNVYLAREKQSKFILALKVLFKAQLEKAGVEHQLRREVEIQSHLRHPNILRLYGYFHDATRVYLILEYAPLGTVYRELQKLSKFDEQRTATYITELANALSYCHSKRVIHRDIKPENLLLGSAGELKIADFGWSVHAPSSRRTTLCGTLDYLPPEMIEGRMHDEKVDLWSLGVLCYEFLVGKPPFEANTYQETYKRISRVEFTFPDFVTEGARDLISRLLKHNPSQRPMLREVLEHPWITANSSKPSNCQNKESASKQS

[9] = target: Casein kinase I isoform epsilon (Homo sapiens, UniProt P49674); assay: Selectivity interaction (KinomeScan (DiscoverX)) EUB0001049a CSNK1E; conditions: at 1 µM
Casein kinase I isoform epsilon, sequence (P49674 whole entry, looked up, canonical isoform): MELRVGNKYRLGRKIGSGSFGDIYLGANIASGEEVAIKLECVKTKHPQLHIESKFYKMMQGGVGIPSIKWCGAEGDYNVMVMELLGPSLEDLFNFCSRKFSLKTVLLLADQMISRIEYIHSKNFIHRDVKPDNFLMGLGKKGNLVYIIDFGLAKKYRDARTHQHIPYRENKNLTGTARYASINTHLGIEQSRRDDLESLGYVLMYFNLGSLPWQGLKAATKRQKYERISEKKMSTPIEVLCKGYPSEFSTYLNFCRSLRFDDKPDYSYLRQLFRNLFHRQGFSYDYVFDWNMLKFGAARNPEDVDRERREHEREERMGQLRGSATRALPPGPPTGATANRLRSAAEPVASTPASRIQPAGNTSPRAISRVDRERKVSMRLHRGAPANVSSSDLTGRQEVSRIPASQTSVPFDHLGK

[10] = target: Choline kinase alpha (Homo sapiens) (UniProt P35790); assay: Selectivity interaction (Kinase panel (literature)) EUB0001199aCl CHKA; conditions: at 1 µM
Choline kinase alpha (Homo sapiens), sequence (P35790 whole entry, looked up): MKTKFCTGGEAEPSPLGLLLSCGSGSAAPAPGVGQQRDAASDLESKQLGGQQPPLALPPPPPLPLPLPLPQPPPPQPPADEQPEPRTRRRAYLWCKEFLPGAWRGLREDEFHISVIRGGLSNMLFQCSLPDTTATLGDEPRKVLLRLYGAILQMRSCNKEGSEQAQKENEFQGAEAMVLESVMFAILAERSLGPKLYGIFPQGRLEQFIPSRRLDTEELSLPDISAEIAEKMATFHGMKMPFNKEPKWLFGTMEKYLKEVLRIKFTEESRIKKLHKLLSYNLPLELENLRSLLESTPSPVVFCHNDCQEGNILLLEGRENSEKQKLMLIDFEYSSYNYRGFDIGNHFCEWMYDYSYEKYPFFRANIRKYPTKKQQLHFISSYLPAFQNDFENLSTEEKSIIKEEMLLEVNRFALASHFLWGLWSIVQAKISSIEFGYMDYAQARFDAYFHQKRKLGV

[11] = target: T1, SNF-related serine/threonine-protein kinase (Homo sapiens); assay: Selectivity interaction (Ambit KINOMEscan and KiNATiv profiling in Jurkat cells) EUB0000090b SNRK; type: cell-based; conditions: at 1 µM
[12] = target: Bone morphogenetic protein receptor type-1A (Homo sapiens, UniProt P36894); assay: Selectivity interaction (Ambit KINOMEscan and KiNATiv profiling in Jurkat cells) EUB0000090b BMPR1A; type: cell-based; conditions: at 1 µM
Bone morphogenetic protein receptor type-1A, sequence (P36894 whole entry): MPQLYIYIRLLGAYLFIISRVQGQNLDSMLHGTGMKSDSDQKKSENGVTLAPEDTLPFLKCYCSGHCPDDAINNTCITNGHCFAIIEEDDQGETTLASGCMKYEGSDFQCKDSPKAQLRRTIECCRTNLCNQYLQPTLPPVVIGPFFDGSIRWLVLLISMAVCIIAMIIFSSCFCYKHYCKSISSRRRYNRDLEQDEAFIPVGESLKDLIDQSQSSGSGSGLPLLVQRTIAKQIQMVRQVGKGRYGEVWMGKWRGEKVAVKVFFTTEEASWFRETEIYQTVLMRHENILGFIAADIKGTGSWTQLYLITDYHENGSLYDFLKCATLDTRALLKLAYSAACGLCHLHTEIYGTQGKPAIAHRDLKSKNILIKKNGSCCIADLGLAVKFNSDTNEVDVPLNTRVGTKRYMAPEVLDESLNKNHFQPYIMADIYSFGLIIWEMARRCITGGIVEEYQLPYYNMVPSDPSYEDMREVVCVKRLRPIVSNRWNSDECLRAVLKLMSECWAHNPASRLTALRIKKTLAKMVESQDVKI

Casein kinase I isoform gamma-1 (Homo sapiens), sequence (Q9HCP0 whole entry, looked up, canonical isoform): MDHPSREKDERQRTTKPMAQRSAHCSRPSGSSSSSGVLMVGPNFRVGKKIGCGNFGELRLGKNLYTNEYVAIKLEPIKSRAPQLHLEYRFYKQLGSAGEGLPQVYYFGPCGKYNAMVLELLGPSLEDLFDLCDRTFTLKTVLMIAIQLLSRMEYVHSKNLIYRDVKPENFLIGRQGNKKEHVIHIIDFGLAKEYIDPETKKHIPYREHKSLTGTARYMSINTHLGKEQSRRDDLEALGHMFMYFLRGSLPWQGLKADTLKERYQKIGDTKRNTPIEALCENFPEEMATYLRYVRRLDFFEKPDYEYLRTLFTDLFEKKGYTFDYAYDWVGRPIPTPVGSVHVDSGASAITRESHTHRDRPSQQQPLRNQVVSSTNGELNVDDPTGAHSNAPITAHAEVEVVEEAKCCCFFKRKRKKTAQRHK

`CN(C)CCOc1ccc(-c2nc(-c3ccncc3)c(-c3ccc4c(c3)CC/C4=N\O)[nH]2)cc1` showed a % of control [1] of 81%, a % of control [2] of 89% and a % of control [3] of 82%.

For `Cn1cc(-n2cnc3c(NCc4nc5cc(Cl)c(Cl)cc5[nH]4)nc(N4CCOCC4)nc32)cn1`, the % of inhibition [4] was -35%, the % of inhibition [5] was -8.6% and the % of control [6] was 1.52%.

With `CC[C@@H]1[C@H](F)C(=O)N[C@@H]1COc1nccc2cc(C(N)=O)c(OC)cc12` [ZIMLOVISERTIB] the % of inhibition ([7]; at 0.01 µM) was 7.8%, the % of inhibition ([7]; at 0.04 µM) was 2% and the % of inhibition ([7]; at 0.2 µM) was 4.6%. For the same compound, the % of inhibition ([7]; at 1 µM) was 14%, the % of inhibition ([7]; at 5 µM) was 17% and the % of inhibition [8] was 20.9%.

In the case of `COc1cc(Nc2nc(C)cc(-c3cnn4nc(OC)ccc34)n2)cc(C(F)(F)F)c1`, the % of control [9] is reported as 80%.

Work on `CN1Cc2nccc(-c3cn(C)nc3-c3ccc(F)cc3)c2C1=O` yielded a % of inhibition [10] of -3%.

With `CN(C)C/C=C/C(=O)Nc1ccc(C(=O)N2CCCC(Nc3ncc(Cl)c(-c4c[nH]c5ccccc45)n3)C2)cc1` (stereo unspecified) the % of control [11] was 93% and the % of control [12] was 100%.

— ChEMBL document CHEMBL5465560, “Selectivity Literature for EUbOPEN Chemogenomic Library” (2024)
